Data taken from article PMC7956819, “Peptides from the Intestinal Tract of Breast Milk-Fed Infants Have Antimicrobial and Bifidogenic Activity” (International Journal of Molecular Sciences, 2021).
Peptide text beside a SMILES is read from it.

Legend:
Assay type in all cases: cell-based
[1] = system: Bifidobacterium longum spp. infantis ATCC 15697; conditions: ATCC 15697, 18 h
Protocol: (§1) The bioactivity of the intestinal peptide extracts was determined via the microdilution method. Antimicrobial activity was screened with E. coli and S. aureus as representatives of common infant pathogens responsible for infectious disease, and growth-promoting activity was screened with B. infantis, one of the ideal colonizers of the infant gut. For the antimicrobial assays, colonies of bacteria were selected and inoculated in 2 mL of MHB and incubated at 37 °C for 24 h. The inoculum was diluted to 2 × 10^5 CFU/mL with MHB. For the growth-promoting assays, 100 µL of stock bacteria were inoculated in 10 mL of reinforced clostridial broth supplemented with 0.1% ascorbic acid and incubated under anaerobic conditions (BD BBL™ GasPak™) at 37 °C for 24 h. Optical density was measured at 600 nm, and the inoculum was diluted to an optical density of 0.05 with reinforced clostridial broth.
(§2) The intestinal peptide extracts were serially diluted with PBS to concentrations of 1×, 1/2×, 1/4×, 1/8×, 1/16×, 1/32×, 1/64×, and 1/128×. In a 96-well plate, 50 µL of each dilution was incubated with 50 µL of inoculum in duplicate, along with a negative control of 50 µL of inoculum with 50 µL of pure PBS and a sterility test of 50 µL of peptide with 50 µL of broth. Growth was determined by optical density readings at 600 nm (OD600) taken at 0 h (T0) and 18 h (T18). The following equation was used to determine percent inhibition or promotion of bacterial growth:
(§3) Candidate peptides were synthesized and dissolved in sterile nanopure water. Antimicrobial and growth-promoting assays were carried out as described above with serial dilutions ranging from […] to 15.6 μg/mL. Minimum inhibitory concentration (MIC) was determined by the concentration at which all visible growth was inhibited.

[2] = system: Escherichia coli BL21 (DE3); conditions: BL21, 18 h
Protocol: as §1, §2, §3

[3] = system: Staphylococcus aureus ATCC 12600; conditions: ATCC 12600, 18 h
Protocol: as §1, §2, §3

## CC[C@H](C)[C@H](NC(=O)[C@@H]1CCCN1C(=O)[C@@H](N)CCC(=O)O)C(=O)N1CCC[C@H]1C(=O)N[C@@H](CC(C)C)C(=O)N[C@@H](CCC(=O)O)C(=O)N[C@@H](CO)C(=O)N[C@@H](CCCNC(=N)N)C(=O)N[C@@H](CCC(=O)O)C(=O)N[C@@H](CCC(=O)O)C(=O)O [Peptide 5] (H-EPIPLESREE-OH)
[1]
  B. infantis MIC: >3000 µg/mL
[2]
  E. coli MIC: 2500 µg/mL
[3]
  S. aureus MIC: 2500 µg/mL

## CC[C@H](C)[C@H](NC(=O)[C@H](CCC(N)=O)NC(=O)[C@H](C)NC(=O)[C@H](Cc1c[nH]cn1)NC(=O)[C@@H]1CCCN1C(=O)[C@H](CCCNC(=N)N)NC(=O)[C@@H](NC(=O)[C@@H](NC(=O)[C@H](C)NC(=O)[C@@H]1CCCN1C(=O)[C@H](CC(N)=O)NC(=O)[C@H](C)NC(=O)[C@@H](N)Cc1ccc(O)cc1)C(C)C)C(C)C)C(=O)N1CCC[C@H]1C(=O)N[C@@H](CCC(N)=O)C(=O)N[C@@H](CCCNC(=N)N)C(=O)O [Peptide 6] (H-YANPAVVRPHAQIPQR-OH; N-terminus and C-terminus assumed)
[1]
  B. infantis MIC: >3000 µg/mL
[2]
  E. coli MIC: >3000 µg/mL
[3]
  S. aureus MIC: >3000 µg/mL

## CC(C)C[C@H](NC(=O)[C@H](CC(N)=O)NC(=O)[C@@H]1CCCN1C(=O)[C@@H](N)CCCNC(=N)N)C(=O)N[C@@H](Cc1c[nH]cn1)C(=O)N1CCC[C@H]1C(=O)N[C@@H](CO)C(=O)O [Peptide 7] (H-RPNLHPS-OH)
[1]
  B. infantis MIC: >3000 µg/mL
[2]
  E. coli MIC: 3000 µg/mL
[3]
  S. aureus MIC: 3000 µg/mL

## NCCCC[C@H](NC(=O)CNC(=O)[C@H](Cc1ccccc1)NC(=O)[C@H](CCCCN)NC(=O)[C@@H](N)CCC(=O)O)C(=O)N[C@@H](CC(=O)O)C(=O)N[C@@H](CCCCN)C(=O)N[C@@H](CO)C(=O)N1CCC[C@H]1C(=O)N[C@@H](CCCCN)C(=O)N[C@@H](Cc1ccccc1)C(=O)N[C@@H](CCC(N)=O)C(=O)O [Peptide 8] (H-EKFGKDKSPKFQ-OH)
[1]
  B. infantis MIC: >3000 µg/mL
[2]
  E. coli MIC: 3000 µg/mL
[3]
  S. aureus MIC: 3000 µg/mL

## CSCC[C@H](NC(=O)[C@@H](N)CC(=O)O)C(=O)N[C@@H](CC(C)C)C(=O)N[C@H](C(=O)N[C@H](C(=O)N[C@@H](CC(=O)O)C(=O)N1CCC[C@H]1C(=O)N[C@@H](CCCCN)C(=O)O)C(C)C)C(C)C [Peptide 9] (H-DMLVVDPK-OH; N-terminus and C-terminus assumed)
[1]
  B. infantis MIC: >3000 µg/mL
[2]
  E. coli MIC: 3000 µg/mL
[3]
  S. aureus MIC: 3000 µg/mL

## CC[C@H](C)[C@H](NC(=O)[C@@H](NC(=O)[C@@H]1CCCN1C(=O)[C@H](CC(C)C)NC(=O)[C@H](C)NC(=O)[C@H](CO)NC(=O)[C@@H](NC(=O)[C@@H](N)CCSC)[C@@H](C)O)[C@@H](C)CC)C(=O)N[C@@H](CCC(N)=O)C(=O)N[C@@H](CCCCN)C(=O)O [Peptide 10] (H-MTSALPIIQK-OH)
[1]
  B. infantis MIC: >3000 µg/mL
[2]
  E. coli MIC: >3000 µg/mL
[3]
  S. aureus MIC: >3000 µg/mL

## CC(C)C[C@H](NC(=O)[C@H](CC(=O)O)NC(=O)[C@H](CCCCN)NC(=O)[C@@H](N)Cc1ccccc1)C(=O)NCC(=O)N[C@@H](CCC(=O)O)C(=O)N[C@@H](CCC(=O)O)C(=O)N[C@@H](CC(N)=O)C(=O)N[C@@H](Cc1ccccc1)C(=O)N[C@@H](CCCCN)C(=O)O [Peptide 11] (H-FKDLGEENFK-OH)
[1]
  B. infantis MIC: >3000 µg/mL
[2]
  E. coli MIC: 3000 µg/mL
[3]
  S. aureus MIC: 3000 µg/mL
